Test: Dissolution in deionized water or HCl 15% (Example 1)
Format: physicochemical
Conditions: 20 hours at 180° F., then 3 hours at room temperature
Protocol: Phthalic anhydride (obtained from a commercial supplier) and Sample A (8 g of each) were first mixed with 100 mL deionized water or HCl 15% and maintained for 20 hours at 180° F., and then cooled down to room temperature and kept for 3 hours.

SMILES: O=C1OC(=O)c2ccccc21 [Commercial Phthalic Anhydride, Phthalic anhydride]
- Dissolved (%) (8 g in 100 mL HCl 15%): 4%
- Dissolved (%) (8 g in 100 mL deionized water): 6%
